According to patent US7595176B2, “Methods and reagents for quantitative analysis of Dehalococcoides species” (Georgia Tech Research Corporation, priority 2003, dated 2009):

Legend:
[1] = tested on: VC-dechlorinating Dehalococcoides population in the Bachman culture; test: Reductive dechlorination kinetics of chloroethenes in the VC-dechlorinating Bachman enrichment culture; format: cell-based, Dehalococcoides sp.; conditions: for Ks (half-velocity coefficient) / kX (maximum aqueous dechlorination rate): pyruvate-fed cultures, Monod equation, nonlinear regression; for Dechlorination by the culture after prolonged enrichment with VC: chloroethene added alone, without DCEs or VC
Procedure: All experiments were carried out in serum bottles (160 ml nominal volume) containing 100 ml (final volume) of growth medium, which were sealed with black butyl rubber septa (Wheaton, Ochelata, Okla.). Anoxic, bicarbonate-buffered mineral salts medium was prepared, and was amended with pyruvate (10 mM), lactate (5 mM or 10 mM), acetate plus formate (5 mM each), or acetate (5 mM) as substrates. Löffler et al., Appl. Environ. Microbiol., 1997, 63:4982-4985. Unless indicated otherwise, H2 was only added to acetate-fed cultures at a partial pressure of 9 kPa. Routinely, L-cysteine and Na2S×9 H2O (0.2 mM each) were used to chemically reduce the medium. DL-dithiothreitol (DTT) was tested at 0.5 mM concentration. Titanium(III) (0.5 mM) was added from a filter-sterilized citrate solution after the medium had been autoclaved. Löffler et al., Appl. Environ. Microbial., 1996, 62:3809-3813; Zehnder et al., Science, 1976, 194:1165-1166. Gaseous VC was added as a single dose of 1 to 6 ml per serum bottle resulting in initial aqueous concentrations ranging from 0.27 to 1.6 mM. Other chloroethenes were added using Hamilton glass syringes (Hamilton, Reno, Nev.) to initial aqueous concentrations ranging from 0.2 to 0.5 mM. Biogenic cis-DCE was produced from PCE (0.5 mM) using a culture of ‘Desulfuromonas michiganensis’.
After complete dechlorination to cis-DCE (0.5 mM), the cultures were amended with pyruvate and inoculated with the VC-dechlorinating culture. New cultures were routinely seeded with a 2% (vol/vol) inoculum using plastic syringes. To minimize the contact of the inoculum with air present in the plastic of the syringes during transfers, the syringes were reduced with a sterile 0.5 mM aqueous sulfide solution for 5-10 min prior to transfers. Gaseous substrates were added with plastic syringes that had been previously flushed with H2- and O2-free N2.
All experiments were set up in triplicates, and all results were verified by at least one additional independent experiment. Culture bottles were incubated upside down at room temperature (22-25° C.) without agitation in the dark, unless indicated otherwise. Duplicate controls (no inoculum or autoclaved inoculum) accompanied each experiment. Ethene formation strictly depended on a viable inoculum, and loss of VC through the septum was negligible.
Chloroethenes were measured with a Hewlett Packard model 6890 gas chromatograph equipped with a HP-624 column (60 m length, 0.32 mm diameter, 1.8 μm film thickness) and a flame ionization detector (FID). Headspace samples of 100 μl were withdrawn with gas-tight 250 μl Hamilton glass syringes with Teflon-lined valves (model # 1725), and manually injected into a split injector operated at a split ratio of 2:1. All syringes were flushed with H2- and O2-free N2 gas to prevent contamination of the cultures with these gases. A temperature program that allowed the simultaneous analysis of all chloroethenes and ethene was described previously. He et al., Environ. Sci. Technol., 2002, 36: 3945-3952. Standards were prepared as described and 7-point calibration curves were established for all chloroethenes and ethene at room temperature. Gossett, Environ. Sci. Technol., 1987, 21: 202-208. The instrument detection limits for VC and ethene were 7.3 and 8.6 μM, respectively. For quantification of VC and ethene at different temperatures, concentrations of each compound were determined from 3-point calibration curves.
[formula] was used to describe the substrate reaction kinetics, where S is the chloroethene concentration, KS is the half-saturation coefficient, k is the maximum chloroethene dechlorination rate per unit of biomass, and X is the dechlorinating biomass concentration. It was assumed that Xlag was zero during the lag period due to the small inoculum transferred, and X remained constant during the phase of active dechlorination due to slow growth of the dechlorinating population(s). […]

[2] = 25° C.; Gossett 1987; cited from earlier work

Row | Compound | Ks (half-velocity coefficient) [1] | kX (maximum aqueous dechlorination rate) [1] | Dimensionless Henry coefficient [2] | other results
1 | Cl/C=C/Cl [trans-DCE] | 8.5 ± 0.3 µM | 26.2 ± 0.7 μMday^−1 | 0.384 | 
2 | ClC=C(Cl)Cl [TCE, trichloroethene] |  |  |  | Dechlorination by the culture after prolonged enrichment with VC [1]: failed to dechlorinate
3 | C=C(Cl)Cl [1,1-DCE] |  |  | 1.069 | 
4 | CC1(C)S[C@@H]2[C@H](NC(=O)[C@H](N)c3ccccc3)C(=O)N2[C@H]1C(=O)O [ampicillin, reference compound] |  |  |  | Effect on dechlorination rates of DCEs and VC to ethene ([1]; compared with cultures without the antibiotic): about one third less
5 | Cl/C=C\Cl [cis-DCE] | 8.9 ± 0.4 µM | 23.1 ± 0.8 μMday^−1 | 0.167 | 
6 | ClC(Cl)=C(Cl)Cl [PCE, Perchloroethene] |  |  |  | Dechlorination by the culture after prolonged enrichment with VC [1]: failed to dechlorinate
7 | C=CCl [VC, vinyl chloride] | 5.8 ± 0.4 µM | 54.4 ± 3.5 μMday^−1 | 1.137 | VC dechlorination rate ([1]; acetate-enriched cultures): 2.4 ± 0.5 µmol/L/day
